SMILES strings stand for the structures. Values joined by “and” are separate entries in the source; they are usually repeats but may differ in a detail not shown here. Equal entries are not always repeated. Where two headings read alike, the source gives them in different places. Some results are limits rather than exact numbers.

For data set [1] the following is noted: in vivo; cited from earlier work.
The nature of data set [2]: Stability of ICG fluorescence (storage of stock solutions; constant illumination). Format: physicochemical. The procedure: A vial of ICG containing 2.5 mg of ICG was dissolved into 10 ml of DMSO. […] Aqueous solutions fade rapidly. The ICG in DMSO (“ICG/DMSO”) stock solution was diluted into Enfamil and fluorescence intensity measured. […] The DMSO concentration at the peak fluorescence was 0.3%. Thus enhancement of fluorescence intensity was similar to that observed with use of reconstituted nonfat dry milk.
With respect to FIG. 12, a solution of ICG in Enfamil (8 μg/ml) in a Petri dish was positioned in the imaging system. With constant illumination the fluorescence image was captured every 10 seconds for 22 minutes.

A short description of data set [3]: Relative fluorescence intensity of ICG formulations in Petri dishes, NIRF imaging system. Particulars: for maximum fluorescent intensity: 5 μg/ml ICG. Format: physicochemical. The procedure:
Real-time near-infrared fluorescent (NIRF) imaging was accomplished using a NIRF imaging system. The ring light was coupled to a tungsten halogen source filtered with a Chroma excitation filter (775 nm). The Navitar Zoom 7000 lens was fitted with a Chroma emission filter (845 nm). Images were captured with a Qimaging Retiga camera. Petri dishes (35 mm diameter) were positioned in the imaging system that contained 2 ml of a sample of an enhanced fluorescent composition comprising ICG. This system was used in the investigations of ICG fluorescence enhancement described in this example. Excitation light was delivered to the field of interest using a fiber optic ring light coupled to a tungsten halogen source (Illumination Technologies, Inc. IT 9596-ER) filtered with a 775 nm bandpass filter (Chroma Technologies). A Navitar Zoom 7000 Lens was fitted on a Qimaging Retiga EXi cooled CCD camera.
Indocyanine Green (ICG) stock solutions were prepared by adding 10 ml of diluent to a 25 mg vial of IC Green (Akorn Incorporated). Diluents were water (supplied by the manufacturer), ethanol, or dimethyl sulfoxide (DMSO).
Milk solutions were prepared by dissolving Instant Nonfat Dry Milk (Nestle Carnation) in water at various concentrations up to 30% weight to volume
To prepare ICG-based enhanced fluorescent compositions, ICG stock solutions were added to achieve concentrations up to 250 μg/ml. Relative fluorescence intensity of various formulations was measured in 35 mm circular Petri dishes containing 2 ml. A floating toothpick provided a focusing target.
Intralipid formulations were prepared from Intralipid 20% (Fresenius Kabi), which is a sterile non-pyrogenic fat emulsion prepared for intravenous administration for parenteral nutrition. Intralipid is also a vehicle for intravenous (i.v.) delivery of propofol, and is used as an antidote for acute local anesthetic toxicity. It is a white opaque liquid containing 20% soy bean oil, egg phospholipids, glycerin, and water. ICG stock solutions were added to achieve a range of concentrations of ICG up to 250 μg/ml in the enhanced fluorescent composition.
Stock aqueous ICG solution was diluted into 10, 20, and 30% milk to achieve 1, 5, 10, and 20 μg/ml final concentrations. Fluorescent images of 2 ml of each preparation in 35 mm Petri dishes were acquired using QCapture and quantified using ImageJ.
[…] […] The ICG in DMSO (“ICG/DMSO”) stock solution was diluted into Enfamil and fluorescence intensity measured.
Intralipid is milk-like in its appearance and the major ingredient is 20% soy bean oil. Because Intralipid is approved for human intravenous use, a series of diluted solutions was prepared from the ICG/DMSO stock solution.
In the work summarized in FIG. 9, solutions of ICG were prepared in DMSO, water, or ethanol at 2.5 mg/ml and then diluted to the indicated concentrations across the top of the figure in the diluents listed down the left side. The DMSO and ethanol diluents were diluted with water. Two ml of each solution was transferred to a Petri dish and imaged as described herein in an NIRF imaging system. […] Also imaged were the same ICG concentrations in 5% ethanol and water. […] The use of ethanol and DMSO in pharmaceuticals is limited by the toxicity of these compounds.

Data set [4] in a line: Aqueous ICG preparation used to image the urinary tract of rats. The format is physicochemical. Particulars: aqueous solution 2.5 mg/ml diluted. The procedure: ICG used to image the urinary tract of rats was prepared according to package insert instructions (aqueous solution 2.5 mg/ml) and diluted to 10 μg/ml to achieve peak fluorescence. It was observed that the fluorescence of these preparations was not as intense as that achieved when ICG was injected intravenously and diluted into the blood.

The conditions of data set [5]: cited from earlier work.

With `CC1(C)C(/C=C/C=C/C=C/C=C2\N(CCCCS(=O)(=O)O)c3ccc4ccccc4c3C2(C)C)=[N+](CCCCS(=O)(=O)[O-])c2ccc3ccccc3c21` [ICG, Indocyanine green], the Route of excretion entry in data set [1] is on record as “excreted exclusively in the bile”. In addition, in data set [2], the “Persistence of fluorescence of aqueous solutions” value was “fade rapidly”. In addition, the maximum fluorescent intensity entry was “about 950000 IntDen” in data set [3] (10% milk, arbitrary units of integrated density); “about 1000000 IntDen” in data set [3] (20% milk); “about 1150000 IntDen” in data set [3] (30% milk). In data set [3] (10, 20, 30% milk), the “Dependence of fluorescence on milk concentration” value was “increased with milk concentration”. The “Fluorescence intensity versus ICG concentration” value in data set [3] (25% DMSO in water, FIG. 9) was “increased from 1 to 100 μg/ml”; in data set [3] (100% ethanol, FIG. 9) it was “lower than in DMSO but increased up to 100 μg/ml”. The “ICG concentration at which imaging system was fully saturated” value in data set [3] (100% DMSO, FIG. 9) is 12.5 µg/mL. For the same compound, the “ICG concentration at peak fluorescence” value in data set [3] (ICG in DMSO diluted into Enfamil, Example 2, FIG. 10) is “around 8 μg/ml”; in data set [3] (ICG in DMSO diluted into Intralipid, exposure time reduced from 90 to 70 ms, Example 2, FIG. 10), 8 µg/mL; in data set [3] (ICG/DMSO stock (2.5 mg/ml) diluted into Enfamil, final DMSO 0.3%, Example 1, FIG. 5), 7.8 µg/mL; in data set [3] (aqueous ICG stock diluted into 10, 20 and 30% reconstituted nonfat dry milk, 1, 5, 10, 20 μg/ml tested) it was 5 µg/mL. In data set [3] (in 10, 20 and 30% reconstituted dry milk), the “ICG concentration at which quenching occurred” value was no less than 10 µg/mL. Besides, the “ICG concentration at which fluorescence decreased (quenched)” value in data set [3] (in Enfamil, FIG. 9) was 50 µg/mL and 100 µg/mL. In data set [3] (same imaging conditions as milk preparations), the “Fluorescence of ICG diluted into water or saline” value is on record as “no detectable fluorescence”. Further, the “ICG concentration to achieve peak fluorescence” value in data set [4] came out at 10 µg/mL. For the same compound, the Maximum fluorescence wavelength result is given as “approximately 830 nm” in data set [5] (in blood) and “approximately 810 nm” in data set [5] (in water). Also, the maximum absorption in data set [5] (in plasma at low concentrations) was roughly 800 nm.

Source of the values: patent publication US20140356293A1, “FLUORESCENT COMPOSITIONS WITH ENHANCED FLUORESCENCE AND METHODS BASED THEREON” (The Research Foundation of the State University o New York, priority 2012, published 2014).
